Calls of active or inactive are those of the source. How the calls were made is not given here.
System: rodent carcinogenicity bioassays, tumor incidence
Test: CCRIS carcinogenicity studies
Procedure, shortened: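 NCI-built, expert-reviewed records of carcinogenicity and related test outcomes (mutagenicity, tumor promotion/inhibition) compiled from published and report sources, historical span 1985-2011, not updated.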

## CC(=O)OC/N=[N+](/C)[O-]
Species: FISH, Strain/Sex: MOSQUITOFISH/MALE, FEMALE, Route: IMMERSION, Dose: 0, 10 MG/L IN WATER FOR 2 HR EXPOSURE (STUDY DURATION: 40 WK), Tumor Site: Type of Lesion: LIVER: TUMOR
  carcinogen call: active; positive
Species: MONKEY, Strain/Sex: AFRICAN GREEN/MALE,FEMALE, Route: INTRAPERITONEAL, Dose: 1.94-9.66 G TOTAL DOSE, 1/WK FOR UP TO 89 MO, Tumor Site: Type of Lesion: LIVER: HEPATOCELLULAR CARCINOMA, HEMANGIOSARCOMA, KIDNEY: RENAL CELL CARCINOMA, ESOPHAGUS: SQUAMOUS CELL CARCINOMA, CECU, Tumor Site: Type of Lesion: LIVER: HEPATOCELLULAR CARCINOMA, HEMANGIOSARCOMA, KIDNEY: RENAL CELL CARCINOMA, ESOPHAGUS: SQUAMOUS CELL CARCINOMA, CECU
  carcinogen call: active; positive
Species: MONKEY, Strain/Sex: CYNOMOLGUS/MALE,FEMALE, Route: INTRAPERITONEAL, Dose: 1.94-9.66 G TOTAL DOSE, 1/WK FOR UP TO 89 MO, Tumor Site: Type of Lesion: LIVER: HEPATOCELLULAR CARCINOMA, HEMANGIOSARCOMA, KIDNEY: RENAL CELL CARCINOMA, ESOPHAGUS: SQUAMOUS CELL CARCINOMA, CECU, Tumor Site: Type of Lesion: LIVER: HEPATOCELLULAR CARCINOMA, HEMANGIOSARCOMA, KIDNEY: RENAL CELL CARCINOMA, ESOPHAGUS: SQUAMOUS CELL CARCINOMA, CECU
  carcinogen call: active; positive
Species: MONKEY, Strain/Sex: RHESUS/MALE,FEMALE, Route: INTRAPERITONEAL, Dose: 1.94-9.66 G TOTAL DOSE, 1/WK FOR UP TO 89 MO, Tumor Site: Type of Lesion: LIVER: HEPATOCELLULAR CARCINOMA, HEMANGIOSARCOMA, KIDNEY: RENAL CELL CARCINOMA, ESOPHAGUS: SQUAMOUS CELL CARCINOMA, CECU, Tumor Site: Type of Lesion: LIVER: HEPATOCELLULAR CARCINOMA, HEMANGIOSARCOMA, KIDNEY: RENAL CELL CARCINOMA, ESOPHAGUS: SQUAMOUS CELL CARCINOMA, CECU
  carcinogen call: active; positive
Species: MOUSE, Route: SUBCUTANEOUS, Dose: 0.2-0.4 MG, SINGLE DOSE, Tumor Site: Type of Lesion: UNSPECIFIED: TUMOR
  carcinogen call: active; positive
Species: MOUSE, Strain/Sex: BALB/FEMALE, Route: DERMAL, Dose: 0, 0.5 MG PAINTED ON ANAL REGION 3/WK FOR 24 WK (STUDY DURATION: 24 WK), Tumor Site: Type of Lesion: PERIANAL SEBACEOUS GLAND: SQUAMOUS CELL CARCINOMA, ADENOMA
  carcinogen call: active; positive
Species: MOUSE, Strain/Sex: BALB/MALE, Route: DERMAL, Dose: 0, 0.5 MG PAINTED ON ANAL REGION 3/WK FOR 24 WK (STUDY DURATION: 30 WK), Tumor Site: Type of Lesion: PERIANAL SEBACEOUS GLAND: SQUAMOUS CELL CARCINOMA, BLOOD VESSELS: HEMANGIOMA OR HEMANGIOENDOTHELIOMA
  carcinogen call: active; positive
Species: RAT, Route: INTRAPERITONEAL, SUBCUTANEOUS, Tumor Site: Type of Lesion: BILE DUCT, INTESTINES, KIDNEY, Tumor Site: Type of Lesion: BILE DUCT, INTESTINES, KIDNEY
  carcinogen call: active; positive
Species: RAT, Route: INTRAVENOUS, ORAL, Tumor Site: Type of Lesion: INTESTINES, KIDNEY, LIVER, Tumor Site: Type of Lesion: INTESTINES, KIDNEY, LIVER
  carcinogen call: active; positive
Species: RAT, Route: RECTAL, Tumor Site: Type of Lesion: INTESTINES, KIDNEY
  carcinogen call: active; positive
Species: RAT, Route: SUBCUTANEOUS, Dose: 12.5 MG TOTAL DOSE, 4 DOSES OVER 3 WK, Tumor Site: Type of Lesion: INTESTINES: NEOPLASMS, BILE DUCT: ADENOMA
  carcinogen call: active; positive
Species: RAT, Strain/Sex: DONRYU/MALE, Route: RECTAL, Dose: 1 MG, 1/D FOR 7-26 D, Tumor Site: Type of Lesion: INTESTINES (LARGE): ADENOCARCINOMA, KIDNEY: NEPHROBLASTOMA
  carcinogen call: active; positive

## O=P(OCC(Br)CBr)(OCC(Br)CBr)OCC(Br)CBr (stereo not drawn)
Species: MOUSE, Strain/Sex: B6C3F1/FEMALE, Route: ORAL, Dose: 0, 500, 1000 PPM IN DIET, Dose: 0, 500, 1000 PPM IN DIET, Tumor Site: Type of Lesion: STOMACH: SQUAMOUS CELL PAPILLOMA OR CARCINOMA, LUNG: ALVEOLAR/BRONCHIOLAR ADENOMA OR CARCINOMA, LIVER: HEPATOCELLULAR AD, Tumor Site: Type of Lesion: STOMACH: SQUAMOUS CELL PAPILLOMA OR CARCINOMA, LUNG: ALVEOLAR/BRONCHIOLAR ADENOMA OR CARCINOMA, LIVER: HEPATOCELLULAR AD
  carcinogen call: active; positive
Species: MOUSE, Strain/Sex: B6C3F1/MALE, Route: ORAL, Dose: 0, 500, 1000 PPM IN DIET, Dose: 0, 500, 1000 PPM IN DIET, Tumor Site: Type of Lesion: STOMACH: SQUAMOUS CELL PAPILLOMA OR CARCINOMA, LUNG: ALVEOLAR/BRONCHIOLAR ADENOMA OR CARCINOMA
  carcinogen call: active; positive
Species: RAT, Strain/Sex: F344/FEMALE, Route: ORAL, Dose: 0, 50, 100 PPM IN DIET, Dose: 0, 50, 100 PPM IN DIET, Tumor Site: Type of Lesion: KIDNEY: TUBULAR CELL ADENOMA
  carcinogen call: active; positive
Species: RAT, Strain/Sex: F344/MALE, Route: ORAL, Dose: 0, 50, 100 PPM IN DIET, Dose: 0, 50, 100 PPM IN DIET, Tumor Site: Type of Lesion: KIDNEY: TUBULAR CELL ADENOMA OR ADENOCARCINOMA
  carcinogen call: active; positive

## OCc1ccccc1
Species: MOUSE, Strain/Sex: B6C3F1/F, Route: GAVAGE, Dose: 0, 100, 200 MG/KG IN CORN OIL 5D/WK FOR 103 WK (STUDY DURATION: 106 WK), Dose: 0, 100, 200 MG/KG IN CORN OIL 5D/WK FOR 103 WK (STUDY DURATION: 106 WK)
  carcinogen call: inactive; negative
Species: MOUSE, Strain/Sex: B6C3F1/M, Route: GAVAGE, Dose: 0, 100, 200 MG/KG IN CORN OIL 5D/WK FOR 103 WK (STUDY DURATION: 106 WK), Dose: 0, 100, 200 MG/KG IN CORN OIL 5D/WK FOR 103 WK (STUDY DURATION: 106 WK)
  carcinogen call: inactive; negative
Species: RAT, Strain/Sex: F344/F, Route: GAVAGE, Dose: 0, 200, 400 MG/KG IN CORN OIL 5D/WK FOR 103 WK (STUDY DURATION: 105 WK), Dose: 0, 200, 400 MG/KG IN CORN OIL 5D/WK FOR 103 WK (STUDY DURATION: 105 WK)
  carcinogen call: inactive; negative
Species: RAT, Strain/Sex: F344/M, Route: GAVAGE, Dose: 0, 200, 400 MG/KG IN CORN OIL 5D/WK FOR 103 WK (STUDY DURATION: 105 WK), Dose: 0, 200, 400 MG/KG IN CORN OIL 5D/WK FOR 103 WK (STUDY DURATION: 105 WK)
  carcinogen call: inactive; negative

## Oc1c(Cl)cc(Cl)cc1Cl
Species: MOUSE, Strain/Sex: B6C3F1/FEMALE, Route: ORAL, Dose: 0, 5214, 10428 PPM IN DIET, Dose: 0, 5214, 10428 PPM IN DIET, Tumor Site: Type of Lesion: LIVER: HEPATOCELLULAR CARCINOMA OR ADENOMA
  carcinogen call: active; positive
Species: MOUSE, Strain/Sex: B6C3F1/MALE, Route: ORAL, Dose: 0, 5000, 10000 PPM IN DIET, Dose: 0, 5000, 10000 PPM IN DIET, Tumor Site: Type of Lesion: LIVER: HEPATOCELLULAR CARCINOMA OR ADENOMA
  carcinogen call: active; positive
Species: RAT, Strain/Sex: F344/FEMALE, Route: ORAL, Dose: 0, 5000, 10000 PPM IN DIET, Dose: 0, 5000, 10000 PPM IN DIET
  carcinogen call: inactive; negative
Species: RAT, Strain/Sex: F344/MALE, Route: ORAL, Dose: 0, 5000, 10000 PPM IN DIET, Dose: 0, 5000, 10000 PPM IN DIET, Tumor Site: Type of Lesion: HEMATOPOIETIC SYSTEM (LEUKEMIA): MONOCYTIC LEUKEMIA, LYMPHATIC SYSTEM: LYMPHOMA
  carcinogen call: active; positive

## C[N+](C)(C)CCCl
Species: MOUSE, Strain/Sex: B6C3F1/FEMALE, Route: ORAL, Dose: 0, 500, 2000 PPM IN DIET, Dose: 0, 500, 2000 PPM IN DIET
  carcinogen call: inactive; negative
Species: MOUSE, Strain/Sex: B6C3F1/MALE, Route: ORAL, Dose: 0, 500, 2000 PPM IN DIET, Dose: 0, 500, 2000 PPM IN DIET
  carcinogen call: inactive; negative
Species: RAT, Strain/Sex: F344/FEMALE, Route: ORAL, Dose: 0, 1500, 3000 PPM IN DIET, Dose: 0, 1500, 3000 PPM IN DIET
  carcinogen call: inactive; negative
Species: RAT, Strain/Sex: F344/MALE, Route: ORAL, Dose: 0, 1500, 3000 PPM IN DIET, Dose: 0, 1500, 3000 PPM IN DIET
  carcinogen call: inactive; negative

Reference: PubChem BioAssay AID1259411 (Chemical Carcinogenesis Research Information System (CCRIS), 2018)
